The target of one data set is μ-opioid receptor (MOR) (Homo sapiens, UniProt P35372).
For data set [1], the target named is hAChE-induced Aβ40 aggregation (Homo sapiens, UniProt P22303). In kind it is biochemical. The following applies: [I] = 100 μM; Aβ40/hAChE 100:1.
The next data set addresses Aβ42 (Homo sapiens, UniProt P05067). As to the kind of experiment: Inhibition of Aβ42 self-aggregation, thioflavin T fluorescence assay. The class given is biochemical. The following applies: 50 μM inhibitor, 50 μM Aβ42 (1:1).
For another data set, the system named is HT-22 cells. As to the kind of experiment: Neuroprotection against glutamate-induced oxidative stress in HT-22 cells. The class given is cell-based, mouse.
For data set [2], the system named is Aβ25–35-induced learning impairments in mice. The following applies: mouse, in vivo, ip.
The next data set deals with liver. The following applies: mouse, in vivo, ip, 3 mg/kg.
Data set [3] addresses T1, hCB2R (Homo sapiens, UniProt P34972). To be noted: calcium mobilization. In general terms: Calcium assays in cells follow changes in intracellular calcium, usually with a dye or a luminescent sensor.
For a further data set, the target named is hCB1R (Homo sapiens, UniProt P21554). The following applies: CHO-K1 cells, hCB1 and Gαq16.
Data set [4] concerns U266 myeloma cells (cAMP-regulated MIF and STAT-3 genes, hCB2R).
For a further data set, the target named is hAChE (Homo sapiens, UniProt P22303). In kind it is biochemical.
The target in data set [5] is T1, hCB2R.
Data set [6] has as its system murine microglial cell line N9.
[7] abbreviates: HT-22 cells, 5 mM glutamate, 24 h, MTT.

Read-outs that look alike come from different tables or passages of the source.

Aβ42, sequence (P05067 672-713): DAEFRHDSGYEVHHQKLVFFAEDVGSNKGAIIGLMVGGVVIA
T1 sequence (P34972 whole entry): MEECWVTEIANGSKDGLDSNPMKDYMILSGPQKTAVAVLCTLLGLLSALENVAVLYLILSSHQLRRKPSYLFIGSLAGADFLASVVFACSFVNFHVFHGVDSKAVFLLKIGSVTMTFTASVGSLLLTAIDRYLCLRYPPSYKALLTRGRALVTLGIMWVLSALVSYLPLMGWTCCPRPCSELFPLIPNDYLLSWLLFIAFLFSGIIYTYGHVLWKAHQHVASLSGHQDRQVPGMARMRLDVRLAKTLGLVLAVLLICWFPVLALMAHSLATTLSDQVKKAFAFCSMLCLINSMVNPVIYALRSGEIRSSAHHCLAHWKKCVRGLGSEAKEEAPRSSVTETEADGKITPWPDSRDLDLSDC
μ-opioid receptor (MOR), sequence (P35372 whole entry): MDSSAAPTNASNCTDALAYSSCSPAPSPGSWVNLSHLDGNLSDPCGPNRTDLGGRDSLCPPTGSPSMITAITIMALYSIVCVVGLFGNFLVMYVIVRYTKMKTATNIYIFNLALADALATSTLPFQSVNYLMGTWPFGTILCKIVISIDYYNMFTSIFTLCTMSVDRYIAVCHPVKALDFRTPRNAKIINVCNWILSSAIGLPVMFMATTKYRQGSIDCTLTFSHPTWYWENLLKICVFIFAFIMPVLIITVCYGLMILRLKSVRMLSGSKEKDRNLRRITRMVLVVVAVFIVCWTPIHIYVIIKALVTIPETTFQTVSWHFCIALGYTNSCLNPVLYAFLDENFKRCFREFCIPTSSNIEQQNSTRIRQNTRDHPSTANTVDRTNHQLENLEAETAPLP
hCB1R, sequence (P21554 whole entry): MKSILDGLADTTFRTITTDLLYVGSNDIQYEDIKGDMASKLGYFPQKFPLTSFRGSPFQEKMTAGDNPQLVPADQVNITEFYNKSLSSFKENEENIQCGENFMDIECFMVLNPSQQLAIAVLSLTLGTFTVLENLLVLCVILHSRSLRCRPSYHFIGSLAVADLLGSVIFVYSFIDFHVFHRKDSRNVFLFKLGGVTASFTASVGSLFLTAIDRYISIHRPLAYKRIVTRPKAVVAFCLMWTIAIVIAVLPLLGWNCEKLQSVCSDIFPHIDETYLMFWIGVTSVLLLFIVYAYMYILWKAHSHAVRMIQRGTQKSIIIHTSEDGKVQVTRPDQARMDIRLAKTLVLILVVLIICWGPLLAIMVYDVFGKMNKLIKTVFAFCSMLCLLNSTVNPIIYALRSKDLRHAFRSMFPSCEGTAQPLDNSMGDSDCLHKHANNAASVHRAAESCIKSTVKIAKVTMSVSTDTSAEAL
hAChE-induced Aβ40 aggregation, sequence (P22303 32-614): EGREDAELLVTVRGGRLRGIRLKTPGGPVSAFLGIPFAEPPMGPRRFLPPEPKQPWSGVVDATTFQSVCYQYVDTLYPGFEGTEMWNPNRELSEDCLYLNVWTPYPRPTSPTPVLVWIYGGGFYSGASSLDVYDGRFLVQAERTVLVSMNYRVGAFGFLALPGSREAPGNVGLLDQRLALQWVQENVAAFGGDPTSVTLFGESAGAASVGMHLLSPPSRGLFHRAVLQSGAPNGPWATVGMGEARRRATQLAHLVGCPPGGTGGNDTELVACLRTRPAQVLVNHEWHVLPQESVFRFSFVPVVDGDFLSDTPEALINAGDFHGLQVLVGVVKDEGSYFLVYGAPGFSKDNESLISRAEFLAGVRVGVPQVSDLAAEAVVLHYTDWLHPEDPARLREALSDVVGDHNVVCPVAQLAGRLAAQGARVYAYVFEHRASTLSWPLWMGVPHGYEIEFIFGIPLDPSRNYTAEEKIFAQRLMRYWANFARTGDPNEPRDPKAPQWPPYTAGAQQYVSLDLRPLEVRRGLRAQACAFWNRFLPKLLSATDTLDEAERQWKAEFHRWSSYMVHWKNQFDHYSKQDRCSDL
hAChE, sequence (P22303 32-614): as above

For the compound `CCOc1ccc(Cc2nc3cc(C(=O)NCCCCCCNc4c5c(nc6ccccc46)CCCC5)ccc3n2CCC(C)C)cc1` [4e, 2-(4-Ethoxybenzyl)-1-isopentyl-N-(6-((1,2,3,4-tetrahydroacridin-9-yl)amino)hexyl)-1H-benzo[d]imidazole-5-carboxamide], the “affinity at the μ-opioid receptor (in words)” value on μ-opioid receptor (MOR) is given as “significant affinity”.
As to `CCOc1ccc(Cc2nc3cc(C(=O)NCCSSCCNc4c5c(nc6ccccc46)CCCC5)ccc3n2CCC(C)C)cc1` [compound 8, 2-(4-Ethoxybenzyl)-1-isopentyl-N-(2-((2-((1,2,3,4-tetrahydroacri-din-9-yl)amino)ethyl)disulfaneyl)ethyl)-1H-benzo[d]imidazole-5-carboxamide], the “inhibition of hAChE-induced Aβ40 aggregation (in words)” value in [1] is on record as “not able to significantly inhibit”. Further, the “inhibition of Aβ42 self-aggregation (in words)” value against Aβ42 was “strongly inhibited”. Further, in the data set on HT-22 cells (HT-22 cells, 5 mM glutamate, 5 μM compound), the “neuroprotection at 5 μM (in words)” value is “neuroprotection comparable to the positive control quercetin at 25 μM”. In addition, the concentration showing neuroprotection with HT-22 cells (setting [7]) is ≥ 1 µM. Moreover, in [2], the “most effective dose, complete prevention of Aβ25–35 impairments in both tests” value (from here on “most effective dose, complete prevention”) is reported as 0.3 mg/kg. In the data set with liver, the necrosis positive/specimen is given as 8/11 and the “necrosis reported area %” value is 5–50%.
As to `CCOc1ccc(Cc2nc3cc(C(=O)N(CC)CC)ccc3n2CCCCCNc2c3c(nc4ccccc24)CCCC3)cc1` [3d, 2-(4-Ethoxybenzyl)-N,N-diethyl-1-(5-((1,2,3,4-tetrahydroacridin-9-yl)amino)pentyl)-1H-benzo[d]imidazole-5-carboxamide], the “neuroprotective behavior (in words)” value with HT-22 cells was “none”. Besides, in the data set with liver, the necrosis positive/specimen is 5/6 and the “necrosis reported area %” value is listed as 5–15%.
Take `CCOc1ccc(Cc2nc3cc(C(=O)NCCCCNc4c5c(nc6ccccc46)CCCC5)ccc3n2CCC(C)C)cc1` [4c, 2-(4-Ethoxybenzyl)-1-isopentyl-N-(4-((1,2,3,4-tetrahydroacridin-9-yl)amino)butyl)-1H-benzo[d]imidazole-5-carboxamide]: at hCB2R [3], the “behaviour at hCB2R (in words)” value is recorded as “partial agonists”. For the same compound, at hCB1R, the “activity at hCB1R (in words)” value is given as “devoid of activity”. Further, the “MIF and STAT-3 gene expression compared to vehicle” value in data set [4] was “decreased expression of both genes”.
As for `CCOc1ccc(Cc2nc3cc(C(=O)N(CC)CC)ccc3n2CCCCCCNc2c3c(nc4ccccc24)CCCC3)cc1` [3e, 2-(4-Ethoxybenzyl)-N,N-diethyl-1-(6-((1,2,3,4-tetrahydroacndin-9-yl)amino)hexyl)-1H-benzo[d]imidazole-5-carboxamide], on hAChE, the “Ki′ (inhibition constant for the enzyme-substrate-inhibitor complex), in words” value was “submicromolar range”. In addition, the “inhibition of hAChE-induced Aβ40 aggregation (in words)” value in [1] is given as “significantly reduce the proaggregating action of hAChE”. For the same compound, at Aβ42, the “inhibition of Aβ42 self-aggregation (in words)” value was “strongly inhibited”. Further, the “neuroprotective behavior (in words)” value in the data set with HT-22 cells (setting [7]) is “low neuroprotective behavior”. In addition, the “behaviour at hCB2R (in words)” value on hCB2R [3] is “partial agonists”. Further, on hCB1R, the “activity at hCB1R (in words)” value was “devoid of activity”. The “MIF and STAT-3 gene expression compared to vehicle” value in [4] is listed as “decreased expression of both genes”. In addition, in data set [2], the “most effective dose, complete prevention” value came out at 0.3 mg/kg.
Regarding `Cc1c(C(=O)NN2CCCCC2)nn(-c2ccc(Cl)cc2Cl)c1-c1ccc(Cl)cc1` [Rimonabant], the “[3H]CP 55,940 displ. @10 μM hCB2R” value at hCB2R [5] is listed as 4%.
For `CCOc1ccc(Cc2nc3cc(C(=O)NCCCNc4c5c(nc6ccccc46)CCCC5)ccc3n2CCC(C)C)cc1` [4b, 2-(4-Ethoxybenzyl)-1-isopentyl-N-(3-((1,2,3,4-tetrahydroacridin-9-yl)amino)propyl)-1H-benzo[d]imidazole-5-carboxamide], the “inhibition of Aβ42 self-aggregation (in words)” value against Aβ42 is on record as “quite weak”.
As to `CCOc1ccc(Cc2nc3cc(C(=O)NCCNc4c5c(nc6ccccc46)CCCC5)ccc3n2CCC(C)C)cc1` [4a, 2-(4-Ethoxybenzyl)-1-isopentyl-N-(2-((1,2,3,4-tetrahydroacridin-9-yl)amino)ethyl)-1H-benzo[d]imidazole-5-carboxamide], the “affinity at the μ-opioid receptor (in words)” value at μ-opioid receptor (MOR) is given as “significant affinity”. Also, in data set [6], the “IL1β release and iNOS expression (M1 markers)” value was “significantly decrease”; the “NO release / nitrite accumulation” value is “reduced”; the “TREM2 and TGFβ2 expression (M2 markers)” value is “not reduced”. Moreover, in data set [2], the “most effective dose, complete prevention” value was determined as 1 mg/kg. Moreover, in the data set on liver, the necrosis positive/specimen is given as 6/9 and the “necrosis reported area %” value is given as 5–10%.

For the origin of these results see PMC7640639 (Journal of medicinal chemistry, 2019).
